Test results: publication PMC11347632 (Scientific Reports, 2024)

Biological target: RPA70 (replication protein A) (Homo sapiens, UniProt P27694)
Assay: reconstituted RPA-dependent ATR kinase assay with western blot
Assay type: biochemical

Chain of RPA70 (replication protein A) (P15927 whole entry): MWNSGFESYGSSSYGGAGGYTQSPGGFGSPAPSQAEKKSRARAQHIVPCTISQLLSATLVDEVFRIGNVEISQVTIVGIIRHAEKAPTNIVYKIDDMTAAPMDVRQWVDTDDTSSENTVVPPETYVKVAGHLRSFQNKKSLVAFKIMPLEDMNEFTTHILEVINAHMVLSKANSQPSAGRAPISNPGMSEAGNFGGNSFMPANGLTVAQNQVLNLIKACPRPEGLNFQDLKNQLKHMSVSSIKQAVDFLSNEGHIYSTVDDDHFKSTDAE
Chain of RPA70 (replication protein A) (P35244 2-121, further chain): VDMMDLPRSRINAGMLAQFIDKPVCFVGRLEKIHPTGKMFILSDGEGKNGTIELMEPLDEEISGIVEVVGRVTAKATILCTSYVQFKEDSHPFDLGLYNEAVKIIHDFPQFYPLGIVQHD
Chain of RPA70 (replication protein A) (P27694 whole entry): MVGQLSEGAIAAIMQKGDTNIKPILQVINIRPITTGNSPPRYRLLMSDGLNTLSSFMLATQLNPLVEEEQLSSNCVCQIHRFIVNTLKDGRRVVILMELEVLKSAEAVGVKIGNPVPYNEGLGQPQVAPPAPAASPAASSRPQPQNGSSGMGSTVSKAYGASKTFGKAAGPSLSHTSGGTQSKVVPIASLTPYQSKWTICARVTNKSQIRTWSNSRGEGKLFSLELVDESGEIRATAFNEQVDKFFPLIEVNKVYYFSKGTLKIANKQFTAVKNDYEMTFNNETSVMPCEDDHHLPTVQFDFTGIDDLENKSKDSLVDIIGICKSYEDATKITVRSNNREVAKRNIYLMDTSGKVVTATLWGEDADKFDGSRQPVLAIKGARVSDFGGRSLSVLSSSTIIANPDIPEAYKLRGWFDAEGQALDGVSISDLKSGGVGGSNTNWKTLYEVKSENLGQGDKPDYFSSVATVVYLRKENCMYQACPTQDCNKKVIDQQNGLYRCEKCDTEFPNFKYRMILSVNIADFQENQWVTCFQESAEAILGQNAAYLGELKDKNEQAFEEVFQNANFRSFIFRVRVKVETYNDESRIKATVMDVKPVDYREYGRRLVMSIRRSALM

O=C1C=Cc2ccccc2/C1=C/Nc1ccccc1O [HAMNO, (1Z)-1-[(2-hydroxyanilino)methylidene]naphthalen-2-one]
reconstituted RPA-dependent ATR kinase assay with western blot: we titrated increasing amounts of HAMNO and PAME into the fully activated ATR reaction
